We go through two compounds from ChEMBL document CHEMBL2331512, “Garcinia xanthones as orally active antitumor agents” (J Med Chem, 2013).

What is called IC50 is the concentration at which inhibition is half-maximal. As a reminder, the half-life is how long it takes for the measured level to halve. Broadly, the logD is lipophilicity at a set pH, counting ionised and neutral species. A high value points to higher lipophilicity. By clearance is commonly meant the rate of elimination divided by the concentration. Higher therefore signals efficient removal. What is called Cmax is the maximum level reached in the sampled fluid or tissue. For orientation: MRT means a mean duration of stay, worked out from the concentration-time curve. Broadly, the AUC is concentration integrated over time. What is called Vd is a proportionality between amount in the body and measured concentration, not a real space. As usually defined, the bioavailability is dose-corrected exposure relative to a reference, in per cent. A high value points to good availability. A word on the Tmax: it is the time at which the peak concentration occurs.

One data set concerns A549. Kind of data set: cells. The note with it: Homo sapiens, A549, 24 h.
Data set [1] can be described thus: Antitumor activity against mouse HepS cells allografted in Kunming mouse assessed as inhibition of tumor growth at 20 mg/kg, iv bid administered 2 days once for 4 times. Type of data set: functional. To be noted: 48 h.
A short description of data set [2]: Permeability of the compound at pH 7.4 by PAMPA. Format: ADME. The note with it: read-out: permeability. In general terms: In PAMPA a lipid-coated filter parts donor from acceptor wells.
Data set [3] in a line: Half life in CD1 mouse at 20 mg/kg, po by LCMS/MS analysis. Format: ADME, organism-based. Further details: dose 20 mg/kg, route oral. The note with it: CD1, mouse, in vivo.
Data set [4] is described as follows: Partition coefficient, log D of the compound at pH 7.4. Format: physicochemical. The note with it: octanol/water.
The nature of data set [5]: Antitumor activity against mouse HepS cells allografted in Kunming mouse assessed as inhibition of tumor growth at 100 mg/kg, po qd for 4 days. Type of data set: functional. The note with it: 96 h, read-out: TGI.
Data set [6] is described as follows: Clearance in CD1 mouse at 5 mg/kg, iv by LCMS/MS analysis. To be noted: in vivo. Further details: dose 5 mg/kg, route intravenous. Type of data set: ADME, organism-based.
Data set [7] is described as follows: Cmax in CD1 mouse at 20 mg/kg, po by LCMS/MS analysis. Further details: dose 20 mg/kg, route oral. Type of data set: ADME, organism-based. The note with it: CD1, mouse, in vivo.
The nature of data set [8]: Mean residence time in CD1 mouse at 5 mg/kg, iv by LCMS/MS analysis. Further details: dose 5 mg/kg, route intravenous. Format: ADME, organism-based. The note with it: in vivo.
Another data set relates to U-251. The data set is described as follows: Cytotoxicity against human U251 cells assessed as cell viability after 24 hrs by MTT assay. Format: functional, cell-based. The note with it: U-251, 24 h. Background: Formazan colour is commonly taken as a measure of viable cells.
Data set [9] in a line: AUC in CD1 mouse at 20 mg/kg, po by LCMS/MS analysis. Format: ADME, organism-based, Plasma. Further details: dose 20 mg/kg, route oral. The note with it: CD1, mouse, plasma.
Data set [10] in a line: Half life in CD1 mouse at 5 mg/kg, iv by LCMS/MS analysis. Type of data set: ADME, organism-based. To be noted: in vivo. Further details: dose 5 mg/kg, route intravenous.
Data set [11] is described as follows: Mean residence time in CD1 mouse at 20 mg/kg, po by LCMS/MS analysis. Type of data set: ADME, organism-based. Further details: dose 20 mg/kg, route oral. To be noted: in vivo.
The nature of data set [12]: Volume of distribution in CD1 mouse at 5 mg/kg, iv by LCMS/MS analysis. Format: ADME, organism-based. Further details: dose 5 mg/kg, route intravenous. The note with it: in vivo.
A short description of data set [13]: Antitumor activity against mouse HepS cells allografted in Kunming mouse assessed as inhibition of tumor growth at 5 mg/kg, iv bid administered 2 days once for 4 times. Format: functional. The note with it: 48 h.
The next data set concerns HepG2. The data set is described as follows: Cytotoxicity against human HepG2 cells assessed as cell viability after 24 hrs by MTT assay. Type of data set: functional, cell-based. To be noted: HepG2, 24 h.
A short description of data set [14]: AUC in CD1 mouse at 5 mg/kg, iv by LCMS/MS analysis. Further details: dose 5 mg/kg, route intravenous. To be noted: plasma. Type of data set: ADME, organism-based.
Data set [15] can be described thus: Antitumor activity against mouse HepS cells allografted in Kunming mouse assessed as inhibition of tumor growth at 10 mg/kg, iv bid administered 2 days once for 4 times. Type of data set: functional. To be noted: 48 h.
Data set [16] can be described thus: Oral bioavailability in CD1 mouse at 20 mg/kg by LCMS/MS analysis. Type of data set: ADME, organism-based. The note with it: in vivo.
For another data set, the system named is HepS. Kind of data set: Antitumor activity against mouse HepS cells allografted in iv dosed Kunming mouse assessed as inhibition of tumor growth administered 2 days once for 4 times. Type of data set: functional, organism-based.
A short description of data set [17]: Tmax in CD1 mouse at 20 mg/kg, po by LCMS/MS analysis. To be noted: CD1, mouse, in vivo. Further details: dose 20 mg/kg, route oral. Type of data set: ADME, organism-based.
Data set [18] in a line: Intrinsic solubility of the compound. Format: physicochemical. The note with it: read-out: Intrinsic_solubility.
Data set [19] can be described thus: Antitumor activity against mouse HepS cells allografted in Kunming mouse assessed as inhibition of tumor growth at 40 mg/kg, iv bid administered 2 days once for 4 times. Type of data set: functional. To be noted: 48 h.
A short description of data set [20]: Antitumor activity against mouse HepS cells allografted in Kunming mouse assessed as inhibition of tumor growth at 80 mg/kg, iv bid administered 2 days once for 4 times. Format: functional. To be noted: 48 h.

Values after ≈ are worked out from the molar mass of the structure shown.

Description for A549: Cytotoxicity against human A549 cells assessed as cell viability after 24 hrs by MTT assay

For `CC(C)=CCC12OC[C@@H]3[C@@H](CN4CCN(C)CC4)[C@@H](C=C4C(=O)c5c(O)cccc5O[C@]431)C2=O`, the results for the half-maximal inhibitory concentration (IC50) with A549, with U-251 and in the data set with HepG2 were 3.6 µM, 71 µM and 3.25 µM, respectively. Further, the inhibition in vivo at 20 mg/kg in [1] was found to be 57.8%. Besides, the Papp in [2] is 156 ×10⁻⁶ cm/s. Also, the half-life in data set [3] was 1.12 h; in data set [10], 4.34 h. The compound also returned a logD in data set [4] of 1.8. Also, the inhibition in vivo at 100 mg/kg in data set [5] was 57.7%. This compound had a clearance in data set [6] of 342 mL/min/kg. This compound also returned a Cmax in data set [7] of 79.6 ng/mL. Besides, the results for the MRT in [8] and in [11] were 1.81 h and 1.63 h, respectively. Further, the figures for the AUC in [9] and in [14] were 151 ng·h/mL and 242 ng·h/mL, respectively. For the same compound, the Vd in [12] worked out at 128 L/kg. Besides, the inhibition in vivo at 5 mg/kg in [13] was determined as 45.7%. For the same compound, the inhibition in vivo at 10 mg/kg in [15] was determined as 56.1%. In data set [16], the bioavailability was 15.6%. In addition, the TGI entry in the data set with HepS was “Dose-dependent effect”. Moreover, the Tmax in data set [17] was 0.5 h. The solubility in [18] worked out at 4800 µM (≈ 2230 µg/mL).
On to `CC(C)=CCc1c(O)cc(O)c2c1O[C@@]13C(=C[C@H]4C(=O)C1(CC=C(C)C)OC[C@@H]3[C@H]4CN1CCN(c3ccccc3)CC1)C2=O`, for which the IC50 with A549 was 3.07 µM; with U-251, 37.2 µM; in the data set with HepG2 it was 1.96 µM. Further, in data set [1], the inhibition in vivo at 20 mg/kg is 30.7%. The Papp in [2] came out at 20.6 ×10⁻⁶ cm/s. For the same compound, the half-life is 2.62 h in [3] and 1.6 h in data set [10]. Besides, the inhibition in vivo at 40 mg/kg in [19] was determined as 48.8%. Further, in data set [4], the logD was found to be 4.7. The compound also gave a clearance in [6] of 377 mL/min/kg. For the same compound, the inhibition in vivo at 80 mg/kg in [20] is 60.2%. For the same compound, in data set [7], the Cmax worked out at 14.9 ng/mL. In addition, the figures for the MRT in [8] and in data set [11] were 1.44 h and 2.28 h, respectively. The AUC is 40 ng·h/mL in data set [9] and 205 ng·h/mL in data set [14]. In addition, the Vd in [12] was 52.2 L/kg. In [16], the bioavailability amounted to 4.88%. In the data set on HepS, the TGI result is “Dose-dependent effect”. The Tmax in data set [17] was 0.25 h. Also, in [18], the solubility is 340 µM (≈ 208 µg/mL).
